Test results taken from US12612407B2, “Imidazo[2,1-f][1,2,4]triazin-4-amine derivatives as TLR7 agonist” (BEIGENE, LTD., priority 2020, dated 2026).

Assays:
Assay type in all cases: cell-based
human TLR 8 protein = biological target: T1, human TLR 8 protein (Homo sapiens, UniProt Q9NR97); experiment: TLR8 Stimulation determined using HEK-Blue Detection; conditions: HEK-Blue hTLR8 cells, 16 hr, percentages of maximum activation with Resiquimod or Motolimod, Table 3
T1 construct: expressed in transfected cells; host or cells: HEK293 (HEK-Blue hTLR8)
T1 sequence (Q9NR97 27-1041): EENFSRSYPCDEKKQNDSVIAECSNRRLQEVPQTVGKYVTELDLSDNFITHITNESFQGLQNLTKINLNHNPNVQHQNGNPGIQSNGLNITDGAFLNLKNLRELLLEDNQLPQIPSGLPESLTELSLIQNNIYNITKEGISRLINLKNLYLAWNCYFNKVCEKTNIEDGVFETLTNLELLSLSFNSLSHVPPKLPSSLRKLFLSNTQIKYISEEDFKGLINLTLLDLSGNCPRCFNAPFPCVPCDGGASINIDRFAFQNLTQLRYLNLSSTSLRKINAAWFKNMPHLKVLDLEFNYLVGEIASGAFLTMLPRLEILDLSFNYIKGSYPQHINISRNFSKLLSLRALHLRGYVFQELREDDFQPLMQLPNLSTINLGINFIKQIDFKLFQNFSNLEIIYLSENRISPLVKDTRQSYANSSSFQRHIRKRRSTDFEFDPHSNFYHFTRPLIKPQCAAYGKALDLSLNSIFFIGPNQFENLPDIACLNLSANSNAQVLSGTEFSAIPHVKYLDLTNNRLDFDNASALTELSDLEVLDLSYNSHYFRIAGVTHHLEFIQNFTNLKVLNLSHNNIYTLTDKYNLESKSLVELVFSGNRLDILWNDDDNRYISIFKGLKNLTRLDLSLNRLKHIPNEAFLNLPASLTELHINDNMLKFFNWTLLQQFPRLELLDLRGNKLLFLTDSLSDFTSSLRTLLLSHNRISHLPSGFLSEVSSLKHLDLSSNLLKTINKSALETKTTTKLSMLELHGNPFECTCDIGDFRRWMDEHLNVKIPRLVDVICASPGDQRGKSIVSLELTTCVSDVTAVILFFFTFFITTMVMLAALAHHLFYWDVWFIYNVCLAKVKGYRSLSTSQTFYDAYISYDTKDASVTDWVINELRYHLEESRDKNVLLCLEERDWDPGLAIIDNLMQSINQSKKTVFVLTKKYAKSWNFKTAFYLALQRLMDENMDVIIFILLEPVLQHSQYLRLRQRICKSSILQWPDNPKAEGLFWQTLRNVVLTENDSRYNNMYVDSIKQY
Excerpt: TLR8 Stimulation determined using HEK-Blue Detection
(§1) This assay was designed for studying the stimulation of human TLR 8 protein in HEK-Blue hTLR8 tool cell line by monitoring the activation of NF-κB. HEK-Blue hTLR8 cells were obtained by co-transfection of the hTLR8 gene and an optimized secreted embryonic alkaline phosphatase (SEAP) reporter gene into HEK293 cells. The SEAP reporter gene was placed under the control of the IFN-β minimal promoter fused to five NF-κB and AP-1-binding sites. Stimulation with a TLR 8 ligand activates NF-κB and AP-1 which induce the expression of SEAP. Levels of SEAP can be easily determined with HEK-Blue Detection, a cell culture medium that allows for real-time detection of SEAP. HEK-Blue Detection contains all the nutrients necessary for cell growth and a specific SEAP color substrate. The hydrolysis of the substrate by SEAP produces a purple/blue color that can be measured with a spectrophotometer.
(§2) When growing to 50-80% confluency, HEK-Blue hTLR7/8 cells were plated into 96-well plate (costar 3599) at a density of 40000 cells/well. Then compounds were added with serial dilutions over 10 points with a 1 nM-10 uM final concentration range in 0.1% DMSO/HEK-Blue Detection. The plates were then incubated for 16 hr at 37° C. in 5% CO2. The optical density at 620-655 nm was read on BMG PHERAstar FSX instrument. The EC50 for each compound was determined by calculating the percentages of the maximum activation identified with Resiquimod or Motolimod.

human TLR7 [1] = biological target: T2, human TLR7 (Homo sapiens, UniProt Q9NYK1); experiment: HEK293-Blue hTLR7 Reporter Assay (QUANTI-BLUE, SEAP readout); conditions: HEK-Blue-hTLR7 cells, 24 hrs treatment, Table 1, B1-B232
T2 construct: host or cells: HEK293 (HEK-Blue hTLR7)
T2 sequence (Q9NYK1 27-1049): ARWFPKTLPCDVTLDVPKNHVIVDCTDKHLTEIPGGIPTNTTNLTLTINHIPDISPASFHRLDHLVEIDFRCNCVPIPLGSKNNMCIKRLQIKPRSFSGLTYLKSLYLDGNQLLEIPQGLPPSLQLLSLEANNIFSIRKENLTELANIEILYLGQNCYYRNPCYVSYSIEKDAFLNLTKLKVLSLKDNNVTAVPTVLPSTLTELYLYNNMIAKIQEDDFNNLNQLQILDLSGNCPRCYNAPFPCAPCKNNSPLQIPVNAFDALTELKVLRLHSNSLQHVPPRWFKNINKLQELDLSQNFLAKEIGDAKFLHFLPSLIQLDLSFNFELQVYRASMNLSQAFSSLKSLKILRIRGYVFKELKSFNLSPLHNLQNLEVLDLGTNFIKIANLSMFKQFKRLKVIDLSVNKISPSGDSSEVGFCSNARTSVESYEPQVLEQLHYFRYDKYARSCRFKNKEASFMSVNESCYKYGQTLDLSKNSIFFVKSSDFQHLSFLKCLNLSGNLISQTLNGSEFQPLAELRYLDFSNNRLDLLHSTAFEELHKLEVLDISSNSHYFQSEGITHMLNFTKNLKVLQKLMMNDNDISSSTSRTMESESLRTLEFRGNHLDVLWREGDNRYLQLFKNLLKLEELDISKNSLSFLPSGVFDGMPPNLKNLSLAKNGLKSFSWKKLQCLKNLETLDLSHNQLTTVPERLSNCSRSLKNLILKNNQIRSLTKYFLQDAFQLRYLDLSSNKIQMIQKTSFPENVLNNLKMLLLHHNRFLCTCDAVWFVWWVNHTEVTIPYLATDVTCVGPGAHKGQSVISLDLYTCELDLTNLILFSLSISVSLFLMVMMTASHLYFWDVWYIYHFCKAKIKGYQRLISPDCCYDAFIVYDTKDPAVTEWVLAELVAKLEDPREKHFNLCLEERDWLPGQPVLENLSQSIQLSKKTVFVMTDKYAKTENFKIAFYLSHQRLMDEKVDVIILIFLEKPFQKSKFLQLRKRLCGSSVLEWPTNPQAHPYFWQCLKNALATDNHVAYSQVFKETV
In short: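 HEK-Blue-hTLR7 cells expressing NF-κB/AP-1-driven SEAP, 4×10^4 cells/well, treated 24 h at 37° C with increasing compound concentrations. Supernatant SEAP measured with Quanti-blue substrate (10-30 min, 37° C) at 620-655 nm; EC50 from sigmoidal dose-response fit.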

human TLR7 [2] = biological target: T2, human TLR7; experiment: TLR7 Stimulation Determined Using HEK-Blue Detection; conditions: HEK-Blue hTLR7 cells, 16 hr, percentages of maximum activation with Resiquimod, Table 1, B233-B247
Excerpt: TLR7 Stimulation Determined Using HEK-Blue Detection
as §1, with “TLR7” for “TLR 8”, “hTLR7” for “hTLR8”
as §2, with “HEK-Blue hTLR7” for “HEK-Blue hTLR7/8”, “a 0.04” for “a 1”, “nM-10 μM” for “nM-10 uM”, “5% CO2 and vortex for 30 s before measurement.” for “5% CO2.”, “with Resiquimod.” for “with Resiquimod or Motolimod.”

CCC[C@H](C)Oc1nc(N)c2ncc(Cc3cnc(N4CCC(CN(C)C)CC4)c(C)c3)n2n1 [Compound B123, (S)-7-((6-(4-((dimethylamino)methyl)piperidin-1-yl)-5-methylpyridin-3-yl)methyl)-2-(pentan-2-yloxy)imidazo[2,1-f][1,2,4]triazin-4-amine]
EC50 (human TLR 8 protein): 310 nM | EC50 (human TLR7 [1]): 1.9 nM

CCCC(CC)Oc1nc(N)c2ncc(Cc3cnc(N4CCNCC4)c(C)c3)n2n1 (stereo not drawn) [Compound B140, 2-(hexan-3-yloxy)-7-((5-methyl-6-(piperazin-1-yl)pyridin-3-yl)methyl)imidazo[2,1-f][1,2,4]triazin-4-amine]
EC50 (human TLR 8 protein): 530 nM | EC50 (human TLR7 [1]): 8.7 nM

CCCC(CCC)Nc1nc(N)c2ncc(Cc3cnc(N4CCN(C(=O)CN(C)C)CC4)c(C)c3)n2n1 [Compound B195, 1-(4-(5-((4-amino-2-(heptan-4-ylamino)imidazo[2,1-f] [1,2,4]triazin-7-yl)methyl)-3-methylpyridin-2-yl)piperazin-1-yl)-2-(dimethylamino)ethan-1-one]
EC50 (human TLR 8 protein): > 10000 nM | EC50 (human TLR7 [1]): 2.8 nM

CCCCOc1nc(N)c2ncc(Cc3ccc(C4CCNCC4)nc3F)n2n1 [Compound B21, 2-butoxy-7-((2-fluoro-6-(piperidin-4-yl)pyridin-3-yl)methyl)imidazo[2,1-f][1,2,4]triazin-4-amine]
EC50 (human TLR 8 protein): 250 nM | EC50 (human TLR7 [1]): 115 nM

CCC[C@H](C)Nc1nc(N)c2ncc(Cc3cnc(N4CCN(CCO)CC4)c(C)c3)n2n1 [Compound B247, (S)-2-(4-(5-((4-amino-2-(pentan-2-ylamino)imidazo[2,1-f][1,2,4]triazin-7-yl)methyl)-3-methylpyridin-2-yl)piperazin-1-yl)ethan-1-ol]
EC50 (human TLR 8 protein): > 10000 nM | EC50 (human TLR7 [2]): 0.6 nM

CCCC(C)Oc1nc(N)c2ncc(Cc3ccc(C4CCNCC4)nc3F)n2n1 (stereo not drawn) [Compound B238, 7-((2-fluoro-6-(piperidin-4-yl)pyridin-3-yl)methyl)-2-(pentan-2-yloxy)imidazo[2,1-f][1,2,4]triazin-4-amine]
EC50 (human TLR 8 protein): 169 nM | EC50 (human TLR7 [2]): 6.7 nM

CCCC(CCO)Oc1nc(N)c2ncc(Cc3cnc(N4CCNCC4)c(C)c3)n2n1 (stereo not drawn) [Compound B165, 3-((4-amino-7-((5-methyl-6-(piperazin-1-yl)pyridin-3-yl)methyl)imidazo[2,1-f][1,2,4]triazin-2-yl)oxy)hexan-1-ol]
EC50 (human TLR 8 protein): 150 nM | EC50 (human TLR7 [1]): 7 nM

CCCC(C)Oc1nc(N)c2ncc(Cc3cnc(N4CCC(CNCCOC)CC4)c(C)c3)n2n1 (stereo not drawn) [Compound B237, 7-((6-(4-(((2-methoxyethyl)amino)methyl)piperidin-1-yl)-5-methylpyridin-3-yl)methyl)-2-(pentan-2-yloxy)imidazo[2,1-f][1,2,4]triazin-4-amine]
EC50 (human TLR7 [2]): 8.5 nM

CCC[C@H](C)Oc1nc(N)c2ncc(Cc3cnc(N4CCNCC4)c(C)c3)n2n1 [Compound B118, (S)-7-((5-methyl-6-(piperazin-1-yl)pyridin-3-yl)methyl)-2-(pentan-2-yloxy)imidazo[2,1-f][1,2,4]triazin-4-amine]
EC50 (human TLR 8 protein): 197 nM | EC50 (human TLR7 [1]): 3.7 nM

CCCC(CCC)Nc1nc(N)c2ncc(Cc3cnc(N4CCC(CN(C)C)CC4)c(C)c3)n2n1 [Compound B190, 7-((6-(4-((dimethylamino)methyl)piperidin-1-yl)-5-methylpyridin-3-yl)methyl)-N2-(heptan-4-yl)imidazo[2,1-f][1,2,4]triazine-2,4-diamine]
EC50 (human TLR 8 protein): > 10000 nM | EC50 (human TLR7 [1]): 4.4 nM

CCC[C@H](C)Nc1nc(N)c2ncc(Cc3cnc(N4CCC(CNC)CC4)c(C)c3)n2n1 (single isomer, unassigned) [Compound B213]
EC50 (human TLR 8 protein): > 10000 nM | EC50 (human TLR7 [1]): 2.6 nM

CCC[C@H](C)Oc1nc(N)c2ncc(Cc3cnc(N4CCC(N(C)C)CC4)c(C)c3)n2n1 [Compound B122, (S)-7-((6-(4-(dimethylamino)piperidin-1-yl)-5-methylpyridin-3-yl)methyl)-2-(pentan-2-yloxy)imidazo[2,1-f][1,2,4]triazin-4-amine]
EC50 (human TLR 8 protein): 262 nM | EC50 (human TLR7 [1]): 2.6 nM

CCC[C@H](C)Nc1nc(N)c2ncc(Cc3cnc(N4CCN(C(=O)CN(C)C)CC4)c(C)c3)n2n1 [Compound B219, (S)-1-(4-(5-((4-amino-2-(pentan-2-ylamino)imidazo[2,1-f][1,2,4]triazin-7-yl)methyl)-3-methylpyridin-2-yl)piperazin-1-yl)-2-(dimethylamino)ethan-1-one]
EC50 (human TLR 8 protein): > 10000 nM | EC50 (human TLR7 [1]): 2.4 nM

CCC[C@H](C)Nc1nc(N)c2ncc(Cc3cnc(N4CCC(CN(C)C)CC4)c(C)c3)n2n1 (single isomer, unassigned) [Compound B147]
EC50 (human TLR 8 protein): > 10000 nM | EC50 (human TLR7 [1]): 2.2 nM
